Broadly, the inhibition is the drop in the measured response relative to a control, in per cent.

Experiment [1] has as its system carbon tetrachloride (CCl4) administration model. Kind of experiment: 3-day administration experiment in carbon tetrachloride (CCl4) administration model. It is filed as in vivo, mice. Particulars: liver, 72 hours after CCl4; subcutaneous 1 mg/kg twice per day. The method, then: In this Example, carbon tetrachloride (CCl4) for inducing fibrosis in the liver was administered once to mice, and thereafter, the compound of the present invention (IBF-17) was administered for 3 days, and then the liver was collected and observed. More specifically, carbon tetrachloride (diluted 4-fold with olive oil) was intraperitoneally administered once at 2 mL/kg to mice that had been fasted for half a day from the day before the test. IBF-17 was subcutaneously administered daily at 1 mg/kg twice per day (with an interval of 8 hours), including the day of carbon tetrachloride administration. At 72 hours after carbon tetrachloride administration, the mice were dissected and the liver was collected, and expression of fibrosis marker genes (Acta2, Col1a1, Col3a1, Tgfb1, Loxl1, and Ddr2) was analyzed by qPCR.

Experiment [2] concerns rat lung-derived fibroblasts. The experiment in a line: Differentiation of fibroblasts into myofibroblasts, α-SMA western blotting. It is filed as cell-based. As to conditions: TGFβ stimulation 96 hours. The method, then:
In this Example, the effect of IBF-17, which is a compound of the present invention, on differentiation of fibroblasts into myofibroblasts was examined. The medium was replaced with a serum-free medium, and rat lung-derived fibroblasts isolated in Example 2 were cultured for 24 hours. After culturing, IBF-17 was added so as to give final concentrations of 2, 20 nM, or 200 nM, and C8 was added so as to give final concentrations of 2, 20, or 200 nM, followed by reaction for 2 hours. After the reaction, recombinant human TGFβ1 was added so as to give a final concentration of 5 ng/mL, and stimulation was carried out for 96 hours to induce differentiation into myofibroblasts. After induction of differentiation, protein was extracted from the cells and western blotting was performed, a band of α-SMA, which is a differentiation marker, was detected, and the band was quantified as a relative band intensity with respect to glyceraldehyde-3-phosphate dehydrogenase (GAPDH), which is a control.
From this Example, differentiation of fibroblasts into myofibroblasts (by […] TGFβ) was evaluated using α-smooth muscle actin as marker.

Experiment [3] deals with carbon tetrachloride (CCl4) administration model. Kind of experiment: 15-day administration experiment in carbon tetrachloride (CCl4) administration model (therapeutic). As to conditions: oral 5 mg/kg twice per day, 5 days per week, from week 4 of 6 weeks of CCl4. It is filed as in vivo, mice. The method, then: In this Example, over a period of 6 weeks, carbon tetrachloride (CCl4) for inducing fibrosis in the liver was administered to mice, and the compound of the present invention (IBF-17) was administered for a total of 15 days over 3 weeks in the latter half of the test, and the state of tissue fibrosis was observed. While Example 4 is examination of a prophylactic effect in which the compound is administered from the start of the test, this Example is examination of a therapeutic effect in which the compound is administered after 3 weeks have passed since administration of carbon tetrachloride (in a state where liver fibrosis has occurred). Specifically, to mice, carbon tetrachloride (diluted 4-fold with olive oil) was intraperitoneally administered at 1 mL/kg twice per week (for example, Monday and Friday, or Tuesday and Friday) for a total of 6 weeks. From week 4 of the start of the test, IBF-17 was orally administered at 5 mg/kg twice per day (with an interval of 8 hours) for 5 days per week (Monday to Friday). After completion of the experiment, the liver was collected and the amount of collagen was quantified by hydroxyproline measurement.

Experiment [4] deals with bleomycin administration model. The experiment in a line: 10-day administration experiment in bleomycin administration model. It is filed as in vivo, mice. As to conditions: oral 5 mg/kg twice per day, 5 days per week, from 1 week after bleomycin. The method, then: In this Example, to mice administered with bleomycin for inducing fibrosis in the lung, the compound of the present invention (IBF-17) was administered for a total of 10 days over a period of 2 weeks from 1 week after bleomycin administration, and the state of tissue fibrosis was observed.
Specifically, under deep anesthesia, the neck of mice was incised, bleomycin (diluted with physiological saline) was intratracheally administered once at 1.5 U/kg, and the neck was sutured. From 1 week after bleomycin administration (the time when fibrosis begins to occur), IBF-17 was orally administered at 5 mg/kg twice per day (with an interval of 8 hours) for 5 days per week (Monday to Friday). After completion of the experiment, the lung was collected and expression of fibrosis-related genes (Acta2, Col1a1, Col3a1, and Tnc) was analyzed by qPCR. Further, lung sections were prepared, collagen was stained by Masson-trichrome staining, and the fibrotic area was quantified.

Experiment [5] concerns carbon tetrachloride (CCl4) administration model. Kind of experiment: 8-week administration experiment in carbon tetrachloride (CCl4) administration model. It is filed as in vivo, mice. As to conditions: oral, 8 weeks. The method, then:
In this Example, over a period of 8 weeks, carbon tetrachloride (CCl4) for inducing fibrosis in the liver and compounds of the present invention (IBF-17, IBF-18, and IBF-20) were administered to mice, and the state of tissue fibrosis was observed.
To mice, carbon tetrachloride (diluted 4-fold with olive oil) was intraperitoneally administered at 1 mL/kg twice per week (for example, Monday and Friday, or Tuesday and Friday) for a total of 8 weeks. Throughout the entire test period, IBF-17, IBF-18, or IBF-20 was orally administered daily at 1 or 10 mg/kg twice per day (with an interval of 8 hours). After completion of the experiment, the liver was collected, and the amount of collagen was quantified by hydroxyproline measurement, and a specimen was stained with Sirius red to quantify the fibrotic area. In addition, expression of fibrosis markers, Col1a1 and Acta2 (α-SMA) genes, was analyzed by qPCR.

The subject of experiment [6] is TGFβ activation by integrin expressed in lung fibroblasts. The experiment in a line: Effect on TGFβ activation: luciferase reporter coculture of lung fibroblasts and CCL64 reporter cells. It is filed as cell-based, male Wistar rats. As to the method:
In this Example, lung fibroblasts were used as integrin-expressing cells, and the effect of IBF-17, which is a compound of the present invention, on TGFβ activity was examined. Fibroblasts isolated from lungs of male Wistar rats and cultured for 7 days were seeded at 2×10^3 cells per well and incubated for 5 days. After 5 days, IBF-17 or C8 (a known αvβ1 inhibitor) was added so as to give final concentrations of 2, 20, or 200 nM, and 2 hours thereafter, TGFβ-responsive luciferase-producing reporter cells CCL64 were seeded at 2×10^4 cells and cocultured for 18 hours. After that, the cells were lysed, luciferase assay reagent (Promega Corporation) was added, and luciferase activity was measured using a luminometer. The structure of C8, which is a known αvβ1 inhibitor, is as follows. [drawing 43]
Background: In a reporter assay the amount or activity of a reporter protein is the signal.

Experiment [7] has as its system NASH model. The experiment in a line: 8-week administration experiment in NASH model (CDAHFD diet). It is filed as in vivo, mice. Particulars: oral, 8 weeks. As to the method: In this Example, over a period of 8 weeks, while providing mice with CDAHFD (choline-deficient amino acid-restricted high-fat diet), compounds of the present invention (IBF-17, IBF-18, and IBF-20) were administered, and the state of tissue fibrosis was observed. More specifically, mice were fed with a special diet CDAHFD (Research Diets) for inducing a human NASH-like pathological condition for a total of 8 weeks, replacing with new diet twice per week (for example, Monday and Friday, or Tuesday and Friday). Throughout the entire test period, IBF-17, IBF-18, or IBF-20 was orally administered daily at 1, 3, or 10 mg/kg twice per day (with an interval of 8 hours). After completion of the experiment, the amount of collagen in the liver was quantified by hydroxyproline measurement, and, for IBF-17, in addition to staining specimens with Sirius red, which specifically stains collagen, to quantify the fibrotic area, expression of genes regarded as fibrosis markers (Acta2, Col1a1, and Timp-1) was analyzed by qPCR. In addition, body weight of each mouse during the feeding period (CDAHFD temporarily decreases at the initial stage of feeding) was measured, and the weight of the collected liver was measured.

The subject of experiment [8] is unilateral ureteral obstruction (UUO) model. The experiment in a line: 10-day administration experiment in unilateral ureteral obstruction (UUO) model. Particulars: kidney, 10 days after ligation; subcutaneous 1 or 5 mg/kg twice per day for 9 days. It is filed as in vivo, mice. As to the method:
In this Example, over a period of 10 days, the compound of the present invention (IBF-17) was administered to mice in which the ureter on one side was ligated, and the state of tissue fibrosis was observed. More specifically, mice under deep anesthesia were laparotomized, and two sites of the left ureter were ligated using a nylon thread, and the abdomen was sutured. From 1 day after ligation, IBF-17 was subcutaneously administered daily at 1 or 5 mg/kg twice per day (with an interval of 8 hours) for 9 days. At 10 days after ligation, the kidney was collected and expression of genes regarded as fibrosis markers (Acta2, Col1a1, Col3a1, Ddr2, Tgfb1, Tnc, Trpc6, and Loxl1) was analyzed by qPCR.

For experiment [9], the system named is interstitial pneumonia. As to conditions: reported July 2022; cited from earlier work.
Where [10] appears, read: liver, 1 or 10 mg/kg twice per day.

As for `O=C(O)C[C@H](NC(=O)CNC(=O)c1cc(O)cc(NC2=NCC(F)CN2)c1)c1cccc(S(F)(F)(F)(F)F)c1` (stereo partly drawn) [IBF-17, (3S)-3-(2-{3-[(5-fluoro-1,4,5,6-tetrahydropyrimidin-2-yl)amino]-5-hydroxybenzamido}acetamido)-3-[3-(pentafluorosulfanyl)phenyl]propanoic acid], in [1], the “mRNA expression of Col1a1 (qPCR)” value is “clearly decreased”; the “mRNA expression of Col3a1 (qPCR)” value was “clearly decreased”; the “mRNA expression of six fibrosis markers (Acta2, Col1a1, Col3a1, Tgfb1, Loxl1, Ddr2) (qPCR)” value is listed as “all of these markers were decreased”. Further, the “inhibition of differentiation of fibroblasts into myofibroblasts (α-SMA band intensity)” value in [2] (2 nM) was “inhibition of differentiation was observed”. For the same molecule, the inhibition at 0.02 µM in experiment [2] (Rattus norvegicus, Fibroblast, 20 nM, read-out: inhibition of differentiation of fibroblasts into myofibroblasts (α-SMA band intensity)) was no less than 80%. Moreover, the “amount of hydroxyproline in mouse liver” value in experiment [3] is “significantly decreased”. For the same molecule, in [4] (lung), the “mRNA expression of Col1a1 (qPCR)” value is “significantly decreased” and the “mRNA expression of Col3a1 (qPCR)” value is reported as “significantly decreased”. The “fibrotic area of lung (Masson-trichrome staining)” value in experiment [4] is given as “significantly decreased”. Also, in experiment [5] (setting [10]), the “mRNA expression of Acta2 (qPCR)” value was “tends to be decreased” and the “mRNA expression of Col1a1 (qPCR)” value is “tends to be decreased”. For the same molecule, in [5] (1 mg/kg twice per day), the “amount of hydroxyproline in liver tissue” value is on record as “showed an effect”. For the same molecule, in experiment [5] (1 or 10 mg/kg twice per day), the “amount of hydroxyproline in liver tissue” value is given as “decreased the amount of hydroxyproline”. In addition, the “Sirius red-stained area of liver tissue” value in experiment [5] (both 1 mg/kg and 10 mg/kg twice per day, versus non-administration group, decrease followed the dose) was “decreased”. In addition, the “activation of TGFβ (luciferase activity)” value in [6] (200 nM) is listed as “almost completely inhibited”. In addition, in [6] (concentration range of 2 to 200 nM, coculture 18 hours), the “activation of TGFβ (luciferase activity)” value is listed as “suppressed activation of TGFβ in a concentration-dependent manner”. In addition, the “hydroxyproline amount of liver tissue” value in [7] (any dose (1, 3, and 10 mg/kg) twice per day, versus no administration) is “decreases in hydroxyproline amount were observed”. Moreover, the “mRNA expression of fibrosis markers (Acta2, Col1a1, Timp-1) (qPCR)” value in [7] (any of 1, 3, and 10 mg/kg twice per day) is reported as “uniformly decreased fibrosis markers”. Further, the “fibrotic area in tissue specimens (Sirius red)” value in experiment [7] (any of 1, 3, and 10 mg/kg twice per day, versus non-administration group) was “reduced the fibrotic area”. In experiment [8], the “mRNA expression of Acta2 (qPCR)” value is listed as “decreasing tendency”, the “mRNA expression of Col1a1 (qPCR)” value is on record as “significant decreases”, the “mRNA expression of Col3a1 (qPCR)” value is “significant decreases” and the “mRNA expression of Ddr2 (qPCR)” value is “significant decreases”. In [8], the “mRNA expression of Loxl1 (qPCR)” value is listed as “significant decreases”, the “mRNA expression of Tgfb1 (qPCR)” value is recorded as “decreasing tendency”, the “mRNA expression of Tnc (qPCR)” value was “decreasing tendency” and the “mRNA expression of Trpc6 (qPCR)” value is given as “decreasing tendency”.

Take `COCCN(CCCCc1ccc2c(n1)NCCC2)CC[C@H](Nc1ncnc2ccccc12)C(=O)O` [PLN-74809]: in experiment [9], the “efficacy in early Phase 2a of a clinical trial” value is recorded as “proven efficacy”.

These data come from patent EP4733297A1, “INTEGRIN-INHIBITING SMALL MOLECULE COMPOUND” (Antibody Therapeutics, Inc., priority 2023, dated 2024).
